From ChEMBL document CHEMBL6127085, “Design, synthesis and evaluation of novel LpxC inhibitors containing a hydrazone moiety as Gram-negative antibacterial agents” (Eur J Med Chem, 2024)
Converted amounts (≈) assume the structure as drawn.

Columns and labels:
[1] = Plasma protein binding in mouse at 1 uM incubated for 6 hrs by LC-MS/MS analysis; format: ADME, cell-free; details: read-out: PPB (converted)
[2] = Solubility of the compound at pH 9.0 by LC-MS/MS analysis; format: physicochemical; details: buffer
[3] = Plasma protein binding in rat at 1 uM incubated for 6 hrs by LC-MS/MS analysis; format: ADME, cell-free; details: read-out: PPB (converted)
[4] = Metabolic stability in rat liver microsomes assessed as intrinsic clearance at 1 uM preincubated for 5 mins followed by NADPH addition and measured after 5 to 60 mins by LC-MS analysis; format: ADME, Microsome; details: microsomes, 1 µM, time 10-65 min
[5] = Intrinsic clearance in mouse; format: ADME, organism-based; details: read-out: CLH
[6] = Metabolic stability in human liver microsomes assessed as half life at 1 uM preincubated for 5 mins followed by NADPH addition and measured after 5 to 60 mins by LC-MS analysis; format: ADME, Microsome; details: microsomes, 1 µM, time 10-65 min
[7] = MRT (0 to t) in male Sprague-Dawley rat at 1 mg/kg, iv measured upto 24 hrs by LC-MS analysis; format: ADME, organism-based; details: in vivo
[8] = Plasma protein binding in rat assessed as drug recovery at 1 uM incubated for 6 hrs by LC-MS/MS analysis; format: ADME, cell-free; details: read-out: Drug recovery
Cytochrome P450 2C9 = Cytochrome P450 2C9 (Homo sapiens, UniProt P11712); experiment: Inhibition of CYP2C9 in human liver microsomes using sulfaphenazolum […] preincubated for 5 mins followed by substrate addition ande measured after 120 mins in presence of NADPH by LC-MS/MS analysis; format: ADME, Microsome
[9] = Plasma protein binding in rat assessed as unbound fraction at 1 uM incubated for 6 hrs by LC-MS/MS analysis; format: ADME, cell-free
[10] = Plasma protein binding in human at 1 uM incubated for 6 hrs by LC-MS/MS analysis; format: ADME, cell-free; details: read-out: PPB
[11] = Solubility of the compound at pH 4.0 by LC-MS/MS analysis; format: physicochemical; details: buffer
[12] = Volume of distribution at steady state in male Sprague-Dawley rat at 1 mg/kg, iv measured upto 24 hrs by LC-MS analysis; format: ADME, organism-based; details: in vivo, read-out: Vdss
[13] = Stability in mouse plasma at 1 uM incubated for 6 hrs by LC-MS/MS analysis; format: ADME, cell-free; details: read-out: Stability
[14] = Cmax in male Sprague-Dawley rat at 10 mg/kg, IG measured upto 24 hrs by LC-MS analysis; format: ADME, organism-based; details: in vivo, po
[15] = Metabolic stability in mouse liver microsomes assessed as half life at 1 uM preincubated for 5 mins followed by NADPH addition and measured after 5 to 60 mins by LC-MS analysis; format: ADME, Microsome; details: microsomes, 1 µM, time 10-65 min
[16] = Stability in rat plasma at 1 uM incubated for 6 hrs by LC-MS/MS analysis; format: ADME, cell-free; details: read-out: Stability
Klebsiella pneumoniae [17] = experiment: Antibacterial activity against Klebsiella pneumoniae ATCC700603 assessed as reduction in bacterial growth measured after 18 to 24 hrs by CLSI protocol based method; format: functional; details: time 18-24 hrs
[18] = AUC (0 to t) in male Sprague-Dawley rat at 10 mg/kg, IG measured upto 24 hrs by LC-MS analysis; format: ADME, organism-based; details: in vivo, po
[19] = Half life in male Sprague-Dawley rat at 1 mg/kg, iv measured upto 24 hrs by LC-MS analysis; format: ADME, organism-based; details: in vivo
Pseudomonas aeruginosa [20] = experiment: Antibacterial activity against Pseudomonas aeruginosa clinical isolate PAE22-1 assessed as reduction in bacterial growth measured after 18 to 24 hrs by CLSI protocol based method; format: functional; details: time 18-24 hrs
[21] = Plasma protein binding in human assessed as drug recovery at 1 uM incubated for 6 hrs by LC-MS/MS analysis; format: ADME, cell-free; details: read-out: Drug recovery
Cytochrome P450 1A2 = target: T1, Cytochrome P450 1A2 (Homo sapiens, UniProt P05177); experiment: Inhibition of CYP1A2 in human liver microsomes using alpha-naphthoflavone […] preincubated for 5 mins followed by substrate addition ande measured after 120 mins in presence of NADPH by LC-MS/MS analysis; format: ADME, Microsome
T1 sequence (P05177 whole entry): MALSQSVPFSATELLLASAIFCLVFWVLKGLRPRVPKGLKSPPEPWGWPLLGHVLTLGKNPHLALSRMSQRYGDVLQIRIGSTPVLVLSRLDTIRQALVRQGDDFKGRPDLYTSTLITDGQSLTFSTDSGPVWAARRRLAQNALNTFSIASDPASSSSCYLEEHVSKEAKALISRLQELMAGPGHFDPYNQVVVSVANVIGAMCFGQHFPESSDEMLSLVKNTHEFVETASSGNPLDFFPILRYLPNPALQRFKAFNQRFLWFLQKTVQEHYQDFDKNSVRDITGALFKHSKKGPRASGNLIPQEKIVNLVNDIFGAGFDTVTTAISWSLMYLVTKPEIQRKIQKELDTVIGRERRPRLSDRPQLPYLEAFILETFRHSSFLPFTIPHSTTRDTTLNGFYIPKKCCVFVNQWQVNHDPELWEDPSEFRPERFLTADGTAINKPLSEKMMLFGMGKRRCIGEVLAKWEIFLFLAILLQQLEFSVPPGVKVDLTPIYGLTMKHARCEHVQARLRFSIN

[22] = Plasma protein binding in mouse assessed as drug recovery at 1 uM incubated for 6 hrs by LC-MS/MS analysis; format: ADME, cell-free; details: read-out: Drug recovery
[23] = AUC (0 to t) in male Sprague-Dawley rat at 1 mg/kg, iv measured upto 24 hrs by LC-MS analysis; format: ADME, organism-based; details: in vivo
Klebsiella pneumoniae [24] = experiment: Antibacterial activity against Klebsiella pneumoniae clinical isolate KPN+22-1 assessed as reduction in bacterial growth measured after 18 to 24 hrs by CLSI protocol based method; format: functional; details: time 18-24 hrs
HepG2 = experiment: Cytotoxicity against human HepG2 cells assessed as inhibition of cell growth measured after 48 hrs by MTT assay; format: functional, cell-based; details: HepG2, 48 h
Escherichia coli = experiment: Antibacterial activity against Escherichia coli ATCC25922 assessed as reduction in bacterial growth measured after 18 to 24 hrs by CLSI protocol based method; format: functional; details: time 18-24 hrs
[25] = Half life in male Sprague-Dawley rat at 10 mg/kg, IG measured upto 24 hrs by LC-MS analysis; format: ADME, organism-based; details: in vivo, po
Cytochrome P450 3A4 = Cytochrome P450 3A4 (Homo sapiens, UniProt P08684); experiment: Inhibition of CYP3A4 in human liver microsomes using ketoconazole […] preincubated for 5 mins followed by substrate addition ande measured after 120 mins in presence of NADPH by LC-MS/MS analysis; format: ADME, Microsome
[26] = Intrinsic clearance in rat; format: ADME; details: read-out: CLH
[27] = Stability in human plasma at 1 uM incubated for 6 hrs by LC-MS/MS analysis; format: ADME, cell-free; details: read-out: Stability
[28] = Tmax in male Sprague-Dawley rat at 10 mg/kg, IG measured upto 24 hrs by LC-MS analysis; format: ADME, organism-based; details: in vivo, po
Pseudomonas aeruginosa [29] = experiment: Antibacterial activity against Pseudomonas aeruginosa ATCC27853 assessed as reduction in bacterial growth measured after 18 to 24 hrs by CLSI protocol based method; format: functional; details: time 18-24 hrs
[30] = Oral bioavailability in male Sprague-Dawley rat at 10 mg/kg, IG measured upto 24 hrs by LC-MS analysis; format: ADME, organism-based; details: in vivo
Cytochrome P450 2C19 = Cytochrome P450 2C19 (Homo sapiens, UniProt P33261); experiment: Inhibition of CYP2C19 in human liver microsomes using nootkatone […] preincubated for 5 mins followed by substrate addition ande measured after 120 mins in presence of NADPH by LC-MS/MS analysis; format: ADME, Microsome
[31] = Intrinsic clearance in human; format: ADME; details: read-out: CLH
[32] = Plasma protein binding in human assessed as unbound fraction at 1 uM incubated for 6 hrs by LC-MS/MS analysis; format: ADME, cell-free
[33] = Plasma protein binding in mouse assessed as unbound fraction at 1 uM incubated for 6 hrs by LC-MS/MS analysis; format: ADME, cell-free
[34] = Clearance in male Sprague-Dawley rat at 1 mg/kg, iv measured upto 24 hrs by LC-MS analysis; format: ADME, organism-based; details: in vivo
[35] = MRT (0 to t) in male Sprague-Dawley rat at 10 mg/kg, IG measured upto 24 hrs by LC-MS analysis; format: ADME, organism-based; details: in vivo, po
Cytochrome P450 2D6 = Cytochrome P450 2D6 (Homo sapiens, UniProt P10635); experiment: Inhibition of CYP2D6 in human liver microsomes using quinidine […] preincubated for 5 mins followed by substrate addition ande measured after 120 mins in presence of NADPH by LC-MS/MS analysis; format: ADME, Microsome
[36] = Metabolic stability in rat liver microsomes assessed as half life at 1 uM preincubated for 5 mins followed by NADPH addition and measured after 5 to 60 mins by LC-MS analysis; format: ADME, Microsome; details: microsomes, 1 µM, time 10-65 min
[37] = Solubility of the compound at pH 6.8 by LC-MS/MS analysis; format: physicochemical; details: buffer
[38] = Metabolic stability in mouse liver microsomes assessed as intrinsic clearance at 1 uM preincubated for 5 mins followed by NADPH addition and measured after 5 to 60 mins by LC-MS analysis; format: ADME, Microsome; details: microsomes, 1 µM, time 10-65 min

Cytochrome P450 2D6, sequence (P10635 whole entry): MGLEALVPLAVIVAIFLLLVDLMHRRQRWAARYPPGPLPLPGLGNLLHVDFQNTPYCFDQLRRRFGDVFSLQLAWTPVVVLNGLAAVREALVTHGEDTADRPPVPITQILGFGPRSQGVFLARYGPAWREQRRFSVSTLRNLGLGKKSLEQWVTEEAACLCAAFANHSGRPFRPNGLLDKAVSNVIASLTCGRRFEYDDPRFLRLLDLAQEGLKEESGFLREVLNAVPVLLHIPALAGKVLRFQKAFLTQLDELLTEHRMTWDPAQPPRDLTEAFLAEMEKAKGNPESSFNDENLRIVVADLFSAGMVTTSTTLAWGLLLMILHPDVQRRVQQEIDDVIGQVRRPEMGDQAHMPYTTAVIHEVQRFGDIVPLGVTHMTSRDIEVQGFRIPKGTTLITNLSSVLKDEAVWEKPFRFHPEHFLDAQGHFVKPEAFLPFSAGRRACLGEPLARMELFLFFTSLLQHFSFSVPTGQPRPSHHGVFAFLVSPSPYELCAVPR
Cytochrome P450 3A4, sequence (P08684 whole entry): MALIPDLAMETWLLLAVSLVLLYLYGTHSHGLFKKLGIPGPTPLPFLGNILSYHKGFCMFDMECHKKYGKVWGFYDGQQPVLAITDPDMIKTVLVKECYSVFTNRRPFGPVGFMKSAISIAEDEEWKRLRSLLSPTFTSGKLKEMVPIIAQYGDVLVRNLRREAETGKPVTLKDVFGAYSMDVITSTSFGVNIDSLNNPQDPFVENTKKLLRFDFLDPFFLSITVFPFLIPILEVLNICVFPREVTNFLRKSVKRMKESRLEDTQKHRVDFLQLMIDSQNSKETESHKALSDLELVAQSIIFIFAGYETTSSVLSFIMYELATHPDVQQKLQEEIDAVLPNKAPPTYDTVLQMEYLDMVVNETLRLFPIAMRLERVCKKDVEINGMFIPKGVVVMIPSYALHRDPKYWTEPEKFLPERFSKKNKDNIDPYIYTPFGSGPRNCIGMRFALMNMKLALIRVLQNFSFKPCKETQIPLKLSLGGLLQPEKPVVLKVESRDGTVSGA
Cytochrome P450 2C9, sequence (P11712 whole entry): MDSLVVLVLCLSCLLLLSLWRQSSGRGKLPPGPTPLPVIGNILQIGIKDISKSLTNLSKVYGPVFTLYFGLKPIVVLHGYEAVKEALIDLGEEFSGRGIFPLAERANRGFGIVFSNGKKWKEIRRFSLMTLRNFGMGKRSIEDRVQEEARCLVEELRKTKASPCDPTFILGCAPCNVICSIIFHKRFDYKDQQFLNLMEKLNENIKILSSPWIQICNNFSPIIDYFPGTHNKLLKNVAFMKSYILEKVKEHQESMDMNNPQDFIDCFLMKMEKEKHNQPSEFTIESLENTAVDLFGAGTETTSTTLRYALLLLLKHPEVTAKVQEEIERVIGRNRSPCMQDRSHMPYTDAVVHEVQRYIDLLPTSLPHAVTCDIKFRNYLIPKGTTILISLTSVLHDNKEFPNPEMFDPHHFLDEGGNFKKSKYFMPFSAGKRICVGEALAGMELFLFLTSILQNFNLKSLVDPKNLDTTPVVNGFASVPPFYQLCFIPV
Cytochrome P450 2C19, sequence (P33261 whole entry): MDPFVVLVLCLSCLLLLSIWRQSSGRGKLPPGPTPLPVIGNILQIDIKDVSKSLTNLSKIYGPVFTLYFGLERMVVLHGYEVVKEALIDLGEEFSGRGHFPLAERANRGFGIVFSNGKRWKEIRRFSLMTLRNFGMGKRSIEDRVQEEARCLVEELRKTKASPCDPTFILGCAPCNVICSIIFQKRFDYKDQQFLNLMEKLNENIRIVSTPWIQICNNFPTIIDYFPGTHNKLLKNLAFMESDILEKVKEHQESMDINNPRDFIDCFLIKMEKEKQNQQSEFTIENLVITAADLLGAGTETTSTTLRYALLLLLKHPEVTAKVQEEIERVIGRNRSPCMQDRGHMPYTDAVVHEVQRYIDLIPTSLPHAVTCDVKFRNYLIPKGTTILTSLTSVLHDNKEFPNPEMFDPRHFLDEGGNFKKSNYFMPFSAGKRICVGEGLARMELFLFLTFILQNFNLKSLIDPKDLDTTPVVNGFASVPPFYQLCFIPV

## C[C@@H](O)[C@H](NC(=O)c1ccc(C#Cc2ccc(/C=N/N3CCCC3)cc2)cc1)C(=O)NO
[1]
  fraction unbound at 6 h, 1 µM: 0.002
[2]
  solubility: 101 µM (≈ 43.9 µg/mL)
[3]
  fraction unbound at 6 h, 1 µM: 0.002
[4]
  CLH: 9.76 µL/min/mg
[5]
  CLint scaled: 33.8 mL/min/kg
[6]
  t1/2: 5.62 h
[7]
  MRT last at 24 h: 1.31 h
[8]
  recovery at 6 h, 1 µM: 102%
Cytochrome P450 2C9
  IC50: > 30 µM
[9]
  fraction unbound at 6 h, 1 µM: 0.0016
[10]
  fraction unbound at 6 h, 1 µM: 0.001
[11]
  solubility: 4.8 µM (≈ 2.09 µg/mL)
[12]
  Vd: 1.8 L/kg
[13]
  remaining at 6 h, 1 µM: 111%
[14]
  Cmax: 218 ng/mL
[15]
  t1/2: 3.91 min
[16]
  remaining at 6 h, 1 µM: 109%
Klebsiella pneumoniae [17]
  MIC: 8 µg/mL (≈ 18.4 µM)
[18]
  AUC(0-t) at 24 h: 1050 ng·h/mL
[19]
  half-life: 1.09 h
Pseudomonas aeruginosa [20]
  MIC: 2 µg/mL (≈ 4.6 µM)
[21]
  recovery at 6 h, 1 µM: 103%
Cytochrome P450 1A2
  IC50: > 30 µM
[22]
  recovery at 6 h, 1 µM: 110%
[23]
  AUC(0-t) at 24 h: 791 ng·h/mL
Klebsiella pneumoniae [24]
  MIC: 0.25 µg/mL (≈ 0.575 µM)
HepG2
  IC50: > 30 µM
Escherichia coli
  MIC: 0.06 µg/mL (≈ 0.138 µM)
[25]
  half-life: 2.5 h
Cytochrome P450 3A4
  IC50: > 30 µM
[26]
  CLint scaled: 8.59 mL/min/kg
[27]
  remaining at 6 h, 1 µM: 113%
[28]
  Tmax: 4 h
Pseudomonas aeruginosa [29]
  MIC: > 64 µg/mL
[30]
  bioavailability: 13.3%
Cytochrome P450 2C19
  IC50: > 30 µM
[31]
  CLint scaled: 165 mL/min/kg
[32]
  fraction unbound at 6 h, 1 µM: 0.0013
[33]
  fraction unbound at 6 h, 1 µM: 0.00232
[34]
  clearance: 20.6 mL/min/kg
[35]
  MRT last at 24 h: 3.41 h
Cytochrome P450 2D6
  IC50: > 30 µM
[36]
  t1/2: 4.14 min
[37]
  solubility: 9.41 µM (≈ 4.09 µg/mL)
[38]
  CLH: 17.6 µL/min/mg
